Here are results for 19 compounds from patent US20260034123A1 (Cedilla Therapeutics, Inc., priority 2022, published 2026).

For one assay, the target named is CDK2/Cyclin E1 (Homo sapiens, UniProt P24941). As to the kind of experiment: ADP-Glo Luminescent Kinase Assay (CDK2/E1-37C). The format is biochemical. Conditions: 0.18 nM CDK2/Cyclin E1, 100 μM ATP, Histone H1, 37° C.; read-out: ADPGLO (CDK2/E1-37C): IC50. In a few lines: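 Activated CDK2/Cyclin E1 (0.18 nM final) preincubated with compound 60 min at 37 °C, then reacted with 100 μM ATP and Histone H1 ([…]) for 90 min at 37 °C in HEPES pH 7.5 buffer. ADP-Glo luminescence normalized to % activity; IC50 from four-parameter fit.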

The next assay deals with Kuramochi cells RB-WT. Description: IncuCyte Kuramochi cell proliferation assay, RB-WT. It counts as cell-based. The note with it: 72 hours, cell count. In a few lines: (§1)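 mApple-H2B-labelled Kuramochi cells were treated with a 10-point, half-log series (top 20 µM) and imaged at 0 and 72 h. Fluorescent nuclei were counted, and the 0–72 h fold change was normalized to DMSO wells. GI50 came from dose-response fits.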

The test system of a further assay is Kuramochi cells RB-KO. As to the kind of experiment: IncuCyte Kuramochi cell proliferation assay, RB-KO. It counts as cell-based. The note with it: 72 hours, cell count, batch mean. In a few lines:
as §1

For `CC(C)(C(=O)N1CC2(CN(C(=O)c3cnn(Cc4ccc(F)cc4)c3)CC2COCc2cc(F)cc(C3CCC(F)(F)CC3)c2C(=O)O)C1)C(F)(F)F` (stereo not drawn) [I′-68, 2-(4,4-difluorocyclohexyl)-4-fluoro-6-(((6-(1-(4-fluorobenzyl)-1H-pyrazole-4-carbonyl)-2-(3,3,3-trifluoro-2,2-dimethylpropanoyl)-2,6-diazaspiro[3.4]octan-8-yl)methoxy)methyl)benzoic acid], the IC50 at CDK2/Cyclin E1 was at most 0.5 µM; in the assay with Kuramochi cells RB-WT, 5 to 10 µM; in the assay with Kuramochi cells RB-KO it was above 10 µM.
On the same counts, the results for `CC1(C)C[C@@H]1C(=O)N1CC2(CN(C(=O)c3cnn(Cc4ccc(F)cc4)c3)CC2/C=C\Cc2cccc(C3CCC(F)(F)CC3)c2C(=O)O)C1` (stereo partly drawn) [I′-69] are above 10 µM, 5 to 10 µM and above 10 µM.
For `CC1(C)C[C@@H]1C(=O)N1CC2(CN(C(=O)c3cnn(Cc4ccc(F)cc4)c3)CC2COCc2cccc(C3CCC(F)(F)CC3)c2-c2nn[nH]n2)C1` (stereo partly drawn) [I′-70, (8-(((3-(4,4-difluorocyclohexyl)-2-(2H-tetrazol-5-yl)benzyl)oxy)methyl)-2-((S)-2,2-dimethylcyclopropane-1-carbonyl)-2,6-diazaspiro[3.4]octan-6-yl)(1-(4-fluorobenzyl)-1H-pyrazol-4-yl)methanone], in that order: at most 0.5 µM, above 10 µM and above 10 µM.
On the same counts, the results for `CC(C)(C(=O)N1CC2(C1)CN(c1cc(F)c(F)c3ncsc13)C[C@H]2COCc1cccc(C2CCC(F)(F)CC2)c1C(=O)O)C(F)(F)F` [I′-71, (S)-2-(((6-(4,5-difluorobenzo[d]thiazol-7-yl)-2-(3,3,3-trifluoro-2,2-dimethylpropanoyl)-2,6-diazaspiro[3.4]octan-8-yl)methoxy)methyl)-6-(4,4-difluorocyclohexyl)benzoic acid] are at most 0.5 µM, 5 to 10 µM and above 10 µM.
Turning to `CC1(C)C[C@@H]1C(=O)N1CC2(C1)CN(c1cc(F)c(F)c3ncsc13)C[C@H]2COCc1cccc(C2CCC(F)(F)CC2)c1C(=O)O` [I′-72, 2-((((S)-6-(4,5-difluorobenzo[d]thiazol-7-yl)-2-((S)-2,2-dimethylcyclopropane-1-carbonyl)-2,6-diazaspiro[3.4]octan-8-yl)methoxy)methyl)-6-(4,4-difluorocyclohexyl)benzoic acid], the results for the IC50 on CDK2/Cyclin E1, in the assay with Kuramochi cells RB-WT and in the assay on Kuramochi cells RB-KO were at most 0.5 µM, at most 0.5 µM and above 10 µM, respectively.
In the case of `O=C(O)c1c(COCC2CN(C(=O)c3cnn(Cc4ccc(F)cc4)c3)CC23CN(C(=O)C2(C(F)(F)F)CC2)C3)cccc1-c1ccc(Cl)cc1F` (stereo not drawn) [I′-73], the results for the IC50 on CDK2/Cyclin E1, with Kuramochi cells RB-WT and in the assay with Kuramochi cells RB-KO were at most 0.5 µM, at most 0.5 µM and above 10 µM, respectively.
Regarding `O=C(O)c1ccccc1Cn1cc(C(=O)N2CC(COCc3cccc(C4CCC(C(F)(F)F)CC4)c3OC(F)F)C3(C2)CN(C(=O)C2(C(F)(F)F)CC2)C3)cn1` (stereo not drawn) [I′-74, 2-((4-(8-(((2-(difluoromethoxy)-3-(4-(trifluoromethyl)cyclohexyl)benzyl)oxy)methyl)-2-(1-(trifluoromethyl)cyclopropane-1-carbonyl)-2,6-diazaspiro[3.4]octane-6-carbonyl)-1H-pyrazol-1-yl)methyl)benzoic acid], the values for the IC50 on CDK2/Cyclin E1, in the assay with Kuramochi cells RB-WT and with Kuramochi cells RB-KO were at most 0.5 µM, above 10 µM and above 10 µM, respectively.
As to `CC1(C)C[C@@H]1C(=O)N1CC2(CN(C(=O)c3cnn(Cc4ccc(F)cc4)c3)CC2COCc2cccc(C3CCC(F)(F)CC3)c2C#N)C1` (stereo partly drawn) [I′-75, 2-(4,4-difluorocyclohexyl)-6-(((2-((S)-2,2-dimethylcyclopropane-1-carbonyl)-6-(1-(4-fluorobenzyl)-1H-pyrazole-4-carbonyl)-2,6-diazaspiro[3.4]octan-8-yl)methoxy)methyl)benzonitrile], the IC50 is at most 0.5 µM on CDK2/Cyclin E1, above 10 µM with Kuramochi cells RB-WT and above 10 µM in the assay on Kuramochi cells RB-KO.
In the case of `CC(C)(C(=O)N1CC2(CN(C(=O)c3cnn(Cc4ccc(F)cc4)c3)CC2COCc2cccc(C3CCC(F)(F)CC3)c2C(=O)O)C1)C(F)(F)F` (stereo not drawn) [I′-76], the IC50 at CDK2/Cyclin E1 is at most 0.5 µM; in the assay on Kuramochi cells RB-WT it was 0.5 to 5 µM; in the assay on Kuramochi cells RB-KO, 5 to 10 µM.
Take `Cc1cc(F)ccc1-c1cccc(COCC2CN(C(=O)c3cnn(Cc4ccc(F)cc4)c3)CC23CN(C(=O)C2(C(F)(F)F)CC2)C3)c1C(=O)O` (stereo not drawn) [I′-77, 4′-fluoro-3-(((6-(1-(4-fluorobenzyl)-1H-pyrazole-4-carbonyl)-2-(1-(trifluoromethyl)cyclopropane-1-carbonyl)-2,6-diazaspiro[3.4]octan-8-yl)methoxy)methyl)-2′-methyl-[1,1′-biphenyl]-2-carboxylic acid]: the IC50 on CDK2/Cyclin E1 was at most 0.5 µM; in the assay with Kuramochi cells RB-WT, 5 to 10 µM; in the assay with Kuramochi cells RB-KO it was above 10 µM.
Regarding `CC1(C)C[C@@H]1C(=O)N1CC2(CN(C(=O)c3cnn(Cc4ccc(F)cc4)c3)CC2C#CCc2cccc(C3CCC(F)(F)CC3)c2C(=O)O)C1` (stereo partly drawn) [I′-78], the IC50 at CDK2/Cyclin E1, with Kuramochi cells RB-WT and with Kuramochi cells RB-KO was above 10 µM in each case.
For `CC(C)(C)OC(=O)c1c(COCC2CN(C(=O)c3cnn(Cc4ccc(F)cc4)c3)CC23CN(C(=O)[C@H]2CC2(C)C)C3)cccc1C1CCC(F)(F)CC1` (stereo partly drawn) [I′-79, tert-butyl 2-(4,4-difluorocyclohexyl)-6-(((2-((S)-2,2-dimethylcyclopropane-1-carbonyl)-6-(1-(4-fluorobenzyl)-1H-pyrazole-4-carbonyl)-2,6-diazaspiro[3.4]octan-8-yl)methoxy)methyl)benzoate], the IC50 on CDK2/Cyclin E1 was at most 0.5 µM; in the assay with Kuramochi cells RB-WT, above 10 µM; with Kuramochi cells RB-KO, above 10 µM.
Turning to `CC1(C)C[C@@H]1C(=O)N1CC2(CN(C(=O)c3cnn(Cc4ccc(F)cc4)c3)CC2COCc2cccc(C3CCC(F)(F)CC3)c2C(=O)O)C1` (stereo partly drawn) [I′-80, 2-(4,4-difluorocyclohexyl)-6-(((2-((S)-2,2-dimethylcyclopropane-1-carbonyl)-6-(1-(4-fluorobenzyl)-1H-pyrazole-4-carbonyl)-2,6-diazaspiro[3.4]octan-8-yl)methoxy)methyl)benzoic acid], the IC50 was at most 0.5 µM on CDK2/Cyclin E1, 0.5 to 5 µM in the assay on Kuramochi cells RB-WT and above 10 µM in the assay on Kuramochi cells RB-KO.
For `CC1(C)C[C@@H]1C(=O)N1CC2(CN(C(=O)c3cnn(Cc4ccc(F)cc4)c3)CC2COCc2cccc(Br)c2C(=O)O)C1` (stereo partly drawn) [I′-81], in that order: 0.5 to 5 µM, above 10 µM and above 10 µM.
On the same counts, the results for `O=C(O)c1c(O)cc(COCC2CN(C(=O)c3cnn(Cc4ccc(C(F)(F)F)cc4)c3)CC23CN(C(=O)C2(C(F)(F)F)CC2)C3)cc1C1CCC(F)(F)CC1` (stereo not drawn) [I′-82] are 5 to 10 µM, above 10 µM and above 10 µM.
On the same counts, the results for `CC(C)(C)OC(=O)c1c(COCC2CN(C(=O)c3cnn(Cc4ccc(F)cc4C(F)(F)F)c3)CC23CN(C(=O)C2(C(F)(F)F)CC2)C3)cccc1C1CCC(C(F)(F)F)CC1` (stereo not drawn) [I′-83] are 0.5 to 5 µM, above 10 µM and above 10 µM.
Consider `CC1(C)C[C@@H]1C(=O)N1CC2(CN(C(=O)c3cnn(Cc4ccc(F)cc4)c3)CC2COCc2cccc(C3CCC(C(F)(F)F)CC3)c2C(N)=O)C1` (stereo partly drawn) [I′-84, 2-(((2-((S)-2,2-dimethylcyclopropane-1-carbonyl)-6-(1-(4-fluorobenzyl)-1H-pyrazole-4-carbonyl)-2,6-diazaspiro[3.4]octan-8-yl)methoxy)methyl)-6-(4-(trifluoromethyl)cyclohexyl)benzamide], for which the IC50 at CDK2/Cyclin E1 is at most 0.5 µM; in the assay with Kuramochi cells RB-WT, above 10 µM; in the assay on Kuramochi cells RB-KO, above 10 µM.
As for `CC1(C)C[C@@H]1C(=O)N1CC2(CN(C(=O)c3cnn(Cc4ccc(F)cc4)c3)CC2COCc2cccc(C3CCC(C(F)(F)F)CC3)c2C(=O)O)C1` (stereo partly drawn) [I′-85, 2-(((2-((S)-2,2-dimethylcyclopropane-1-carbonyl)-6-(1-(4-fluorobenzyl)-1H-pyrazole-4-carbonyl)-2,6-diazaspiro[3.4]octan-8-yl)methoxy)methyl)-6-(4-(trifluoromethyl)cyclohexyl)benzoic acid], the results for the IC50 at CDK2/Cyclin E1, with Kuramochi cells RB-WT and in the assay with Kuramochi cells RB-KO were at most 0.5 µM, at most 0.5 µM and 5 to 10 µM, respectively.
With `N#Cc1c(COCC2CN(C(=O)c3cnn(Cc4ccc(C(F)(F)F)cc4)c3)CC23CN(C(=O)C2(C(F)(F)F)CC2)C3)cccc1C1CCC(C(F)(F)F)CC1` (stereo not drawn) [I′-86], the figures for the IC50 at CDK2/Cyclin E1, in the assay with Kuramochi cells RB-WT and in the assay on Kuramochi cells RB-KO were 0.5 to 5 µM, above 10 µM and above 10 µM, respectively.
